# Data as given in patent US20250250299A1, “MACROCYCLIC IMMUNOMODULATORS” (Bristol-Myers Squibb Company, priority 2022, published 2025).
# Where a SMILES comes first, the peptide text is derived from it. Bridges are numbered along the chain shown (N, C = ends). [ ]: non-standard residue; d: D form. The star is where a group is joined. X1 = O=C(O)CCCCCCCCCCCCCCCCC(=O)N[C@@H](CCC(=O)NCCOCCOCCOCCOCCOCCOCCOCCOCCOCCOCCOCCn1cc(C*)nn1)C(=O)O; Bip = N[C@@H](Cc1ccc(-c2ccccc2)cc1)C(=O)O; Phe(3-Me) = Cc1cccc(C[C@H](N)C(=O)O)c1; Cha = N[C@@H](CC1CCCCC1)C(=O)O; Carboxymethyl = O=C(O)C*; Nle = CCCC[C@H](N)C(=O)O; Orn = NCCC[C@H](N)C(=O)O; Dab = NCC[C@H](N)C(=O)O; Abu = CC[C@H](N)C(=O)O; Dap = NC[C@H](N)C(=O)O
# Target: T1, human PD-1 (Jurkat-PD-1 cells; binding of PE-labeled human PD-L1-Ig) (Homo sapiens, UniProt Q15116)
# T1 construct: expressed in transfected cells; host or cells: Jurkat (Jurkat-PD-1 / Jurkat-hPD-1)
# T1 sequence (Q15116 25-288): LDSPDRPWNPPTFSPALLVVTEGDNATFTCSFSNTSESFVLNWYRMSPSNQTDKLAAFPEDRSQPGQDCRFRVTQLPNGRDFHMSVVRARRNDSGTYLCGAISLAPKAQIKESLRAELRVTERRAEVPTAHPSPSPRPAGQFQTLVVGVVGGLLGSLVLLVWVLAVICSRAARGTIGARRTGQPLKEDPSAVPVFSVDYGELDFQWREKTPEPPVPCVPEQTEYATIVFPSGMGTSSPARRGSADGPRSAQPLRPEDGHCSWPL
# Test: Jurkat-PD-1 Cell Binding High-Content Screening Assay
# Conditions: Jurkat cell line over-expressing human PD-1; compound 2 h at 37° C., then PE-labeled PD-L1-Ig 20 nM final, 1 hour; read-out: Jurkat hPD1 PDL1 IC50
# Description: The ability of the compounds of formula (I) to bind to PD-1 was investigated using a Jurkat-PD-1 Cell Binding High-Content Screening Assay.
# Phycoerythrin (PE) was covalently linked to the Ig epitope tag of human PD-L1-Ig and fluorescently-labeled PD-L1-Ig was used for binding studies with a Jurkat cell line over-expressing human PD-1 (Jurkat-PD-1). Briefly, 8×10^3 Jurkat-hPD-1 cells were seeded into 384 well plates in 20 μl of DIVEM supplemented with 10% fetal calf serum. 100 nl of compound was added to cells followed by incubation at 37° C. for 2 h. Then, 5 μl of PE-labeled PD-L1-Ig (20 nM final), diluted in DiVEM supplemented with 10 fetal calf serum. After 1 hour incubation, cells were fixed with […] in dPBS containing 10 µg/mL Hoechst 33342 and then washed 3× in 100 μl dPB S. Data was collected and processed using a Cell Insight NXT High Content Imager and associated software.
row,Structure (SMILES),IC50 [nM]
1,Cc1cccc(C[C@@H]2NC(=O)[C@H](CC(=O)O)NC(=O)[C@H](Cc3ccc(OCC(=O)O)cc3)NC(=O)[C@H](Cc3ccc(OCc4cn(CCOCCOCCOCCOCCOCCOCCOCCOCCOCCOCCOCCNC(=O)CC[C@H](NC(=O)CCCCCCCCCCCCCCCCC(=O)O)C(=O)O)nn4)cc3)NC(=O)CSC[C@@H](C(=O)N[C@@H](CCN)C(N)=O)NC(=O)[C@H](CCC(=O)O)NC(=O)[C@H](C(C)C)NC(=O)[C@H](CC3CCCCC3)NC(=O)[C@H](CCN)NC(=O)[C@@H](CC(C)C)NC(=O)[C@H](CCCN)NC(=O)[C@H](Cc3ccc(OCC(=O)O)cc3)NC(=O)[C@H](Cc3ccc(-c4ccccc4)cc3)NC(=O)[C@H](Cc3ccc(OCC(=O)O)cc3)NC2=O)c1 [Compound 1011] ({CH2CO}-Y(X1)Y(Carboxymethyl)D[Phe(3-Me)]Y(Carboxymethyl)[Bip]Y(Carboxymethyl)[Orn][dL][Dab][Cha]VEC[Dab]-NH2; thioether N-14),340
2,Cc1cccc(C[C@@H]2NC(=O)[C@H](CC(=O)O)NC(=O)[C@H](Cc3ccc(OCC(=O)O)cc3)NC(=O)[C@H](CCN)NC(=O)CSC[C@@H](C(=O)N[C@@H](CCN)C(N)=O)NC(=O)[C@H](Cc3ccc(OCc4cn(CCOCCOCCOCCOCCOCCOCCOCCOCCOCCOCCOCCNC(=O)CC[C@H](NC(=O)CCCCCCCCCCCCCCCCC(=O)O)C(=O)O)nn4)cc3)NC(=O)[C@H](C(C)C)NC(=O)[C@H](CC3CCCCC3)NC(=O)[C@H](CCN)NC(=O)[C@@H](CC(C)C)NC(=O)[C@H](CCCN)NC(=O)[C@H](Cc3ccc(OCC(=O)O)cc3)NC(=O)[C@H](Cc3ccc(-c4ccccc4)cc3)NC(=O)[C@H](Cc3ccc(OCC(=O)O)cc3)NC2=O)c1 [Compound 1012] ({CH2CO}-[Dab]Y(Carboxymethyl)D[Phe(3-Me)]Y(Carboxymethyl)[Bip]Y(Carboxymethyl)[Orn][dL][Dab][Cha]VY(X1)C[Dab]-NH2; thioether N-14),380
3,Cc1cccc(C[C@@H]2NC(=O)[C@H](CC(=O)O)NC(=O)[C@H](Cc3ccc(OCC(=O)O)cc3)NC(=O)[C@H](CN)NC(=O)CSC[C@@H](C(=O)N[C@@H](CCN)C(N)=O)NC(=O)[C@H](Cc3ccc(OCc4cn(CCOCCOCCOCCOCCOCCOCCOCCOCCOCCOCCOCCNC(=O)CC[C@H](NC(=O)CCCCCCCCCCCCCCCCC(=O)O)C(=O)O)nn4)cc3)NC(=O)[C@H](C(C)C)NC(=O)[C@H](CC3CCCCC3)NC(=O)[C@H](CCN)NC(=O)[C@@H](CC(C)C)NC(=O)[C@H](CCCN)NC(=O)[C@H](Cc3ccc(OCC(=O)O)cc3)NC(=O)[C@H](Cc3ccc(-c4ccccc4)cc3)NC(=O)[C@H](Cc3ccc(OCC(=O)O)cc3)NC2=O)c1 [Compound 1013] ({CH2CO}-[Dap]Y(Carboxymethyl)D[Phe(3-Me)]Y(Carboxymethyl)[Bip]Y(Carboxymethyl)[Orn][dL][Dab][Cha]VY(X1)C[Dab]-NH2; thioether N-14),240
4,Cc1cccc(C[C@@H]2NC(=O)[C@H](CC(=O)O)NC(=O)[C@H](Cc3ccc(OCC(=O)O)cc3)NC(=O)[C@H](CCCNC(=N)N)NC(=O)CSC[C@@H](C(=O)N[C@@H](CCN)C(N)=O)NC(=O)[C@H](Cc3ccc(OCc4cn(CCOCCOCCOCCOCCOCCOCCOCCOCCOCCOCCOCCNC(=O)CC[C@H](NC(=O)CCCCCCCCCCCCCCCCC(=O)O)C(=O)O)nn4)cc3)NC(=O)[C@H](C(C)C)NC(=O)[C@H](CC3CCCCC3)NC(=O)[C@H](CCN)NC(=O)[C@@H](CC(C)C)NC(=O)[C@H](CCCN)NC(=O)[C@H](Cc3ccc(OCC(=O)O)cc3)NC(=O)[C@H](Cc3ccc(-c4ccccc4)cc3)NC(=O)[C@H](Cc3ccc(OCC(=O)O)cc3)NC2=O)c1 [Compound 1014] ({CH2CO}-RY(Carboxymethyl)D[Phe(3-Me)]Y(Carboxymethyl)[Bip]Y(Carboxymethyl)[Orn][dL][Dab][Cha]VY(X1)C[Dab]-NH2; thioether N-14),73
5,Cc1cccc(C[C@@H]2NC(=O)[C@H](CC(=O)O)NC(=O)[C@H](Cc3ccc(OCC(=O)O)cc3)NC(=O)[C@H](Cc3c[nH]cn3)NC(=O)CSC[C@@H](C(=O)N[C@@H](CCN)C(N)=O)NC(=O)[C@H](Cc3ccc(OCc4cn(CCOCCOCCOCCOCCOCCOCCOCCOCCOCCOCCOCCNC(=O)CC[C@H](NC(=O)CCCCCCCCCCCCCCCCC(=O)O)C(=O)O)nn4)cc3)NC(=O)[C@H](C(C)C)NC(=O)[C@H](CC3CCCCC3)NC(=O)[C@H](CCN)NC(=O)[C@@H](CC(C)C)NC(=O)[C@H](CCCN)NC(=O)[C@H](Cc3ccc(OCC(=O)O)cc3)NC(=O)[C@H](Cc3ccc(-c4ccccc4)cc3)NC(=O)[C@H](Cc3ccc(OCC(=O)O)cc3)NC2=O)c1 [Compound 1015] ({CH2CO}-HY(Carboxymethyl)D[Phe(3-Me)]Y(Carboxymethyl)[Bip]Y(Carboxymethyl)[Orn][dL][Dab][Cha]VY(X1)C[Dab]-NH2; thioether N-14),100

# Continued, values first:
row,IC50 [nM],Structure (SMILES)
1,630,Cc1cccc(C[C@@H]2NC(=O)[C@H](CC(=O)O)NC(=O)[C@H](Cc3ccc(OCc4cn(CCOCCOCCOCCOCCOCCOCCOCCOCCOCCOCCOCCNC(=O)CC[C@H](NC(=O)CCCCCCCCCCCCCCCCC(=O)O)C(=O)O)nn4)cc3)NC(=O)[C@H](Cc3c[nH]cn3)NC(=O)CSC[C@@H](C(=O)N[C@@H](CCN)C(N)=O)NC(=O)[C@H](CCC(=O)O)NC(=O)[C@H](C(C)C)NC(=O)[C@H](CC3CCCCC3)NC(=O)[C@H](CCN)NC(=O)[C@@H](CC(C)C)NC(=O)[C@H](CCCN)NC(=O)[C@H](Cc3ccc(OCC(=O)O)cc3)NC(=O)[C@H](Cc3ccc(-c4ccccc4)cc3)NC(=O)[C@H](Cc3ccc(OCC(=O)O)cc3)NC2=O)c1 [Compound 1010] ({CH2CO}-HY(X1)D[Phe(3-Me)]Y(Carboxymethyl)[Bip]Y(Carboxymethyl)[Orn][dL][Dab][Cha]VEC[Dab]-NH2; thioether N-14)
2,100,CCCC[C@@H]1NC(=O)CSC[C@@H](C(=O)N[C@@H](CCN)C(N)=O)NC(=O)[C@H](CCC(=O)O)NC(=O)[C@H](C(C)C)NC(=O)[C@H](CC2CCCCC2)NC(=O)[C@H](CCN)NC(=O)[C@@H](CC(C)C)NC(=O)[C@H](CCCN)NC(=O)[C@H](Cc2ccc(OCC(=O)O)cc2)NC(=O)[C@H](Cc2ccc(-c3ccccc3)cc2)NC(=O)[C@H](Cc2ccc(OCc3cn(CCOCCOCCOCCOCCOCCOCCOCCOCCOCCOCCOCCNC(=O)CC[C@H](NC(=O)CCCCCCCCCCCCCCCCC(=O)O)C(=O)O)nn3)cc2)NC(=O)[C@H](Cc2cccc(C)c2)NC(=O)[C@H](CC(=O)O)NC(=O)[C@H](Cc2ccc(OCC(=O)O)cc2)NC1=O [Compound 1016] ({CH2CO}-[Nle]Y(Carboxymethyl)D[Phe(3-Me)]Y(X1)[Bip]Y(Carboxymethyl)[Orn][dL][Dab][Cha]VEC[Dab]-NH2; thioether N-14)
3,90,CC[C@@H]1NC(=O)CSC[C@@H](C(=O)N[C@@H](CCN)C(N)=O)NC(=O)[C@H](CCC(=O)O)NC(=O)[C@H](C(C)C)NC(=O)[C@H](CC2CCCCC2)NC(=O)[C@H](CCN)NC(=O)[C@@H](CC(C)C)NC(=O)[C@H](CCCN)NC(=O)[C@H](Cc2ccc(OCC(=O)O)cc2)NC(=O)[C@H](Cc2ccc(-c3ccccc3)cc2)NC(=O)[C@H](Cc2ccc(OCc3cn(CCOCCOCCOCCOCCOCCOCCOCCOCCOCCOCCOCCNC(=O)CC[C@H](NC(=O)CCCCCCCCCCCCCCCCC(=O)O)C(=O)O)nn3)cc2)NC(=O)[C@H](Cc2cccc(C)c2)NC(=O)[C@H](CC(=O)O)NC(=O)[C@H](Cc2ccc(OCC(=O)O)cc2)NC1=O [Compound 1017] ({CH2CO}-[Abu]Y(Carboxymethyl)D[Phe(3-Me)]Y(X1)[Bip]Y(Carboxymethyl)[Orn][dL][Dab][Cha]VEC[Dab]-NH2; thioether N-14)
